# Reference: patent publication US11357865B2, “Compositions containing nucleic acid nanoparticles with modular functionality” (Sixfold Bioscience Ltd., priority 2020, dated 2022)
# System: HeLa cells
# Assay: Aptamer uptake, confocal fluorescence microscopy of live HeLa cells
# Format: cell-based
# Settings: 200 nM Cy5-labelled aptamer, increasing lengths of time, Lysotracker and early endosome GFP stains
# Experimental: Cells were imaged by confocal microscopy after treatment with 200 nM Cy5-labelled E07 min A-1.0 aptamer (A-1.0) or 200 nM Cy5-labelled constructs (SQ1-1000-001). For aptamer uptake experiments, 1×10^4 cells were plated in each well of a μ-Slide 8 well ibiditreat chamber (IBIDI), in 300 μL DMEM containing 10% v/v FBS. For uptake experiments, 3.4×10^3 cells (HeLa, MDA-MB-231 and A549 cells) or 6.8×10^3 cells (Mcf-7) were plated in each well of a μ-Slide 18 well ibiditreat chamber (IBIDI), in 100 μL DMEM containing 10% v/v FBS. 5 hours after cells had adhered and 48 hours before imaging, media was replaced with 50 particles per cell (PPC) CellLight early endosome-GFP (Thermo Fisher Scientific) for overnight incubation at 37° C. Additionally, 200 μL DMEM aliquots containing 200 nM aptamer were added to cells at corresponding incubation time points. Subsequently, media was removed and replaced with 60 nM LysoTracker Red DND-99 (Thermo Fisher Scientific) in 100-200 μL DMEM for 1 hour at 37° C. Cells were then washed once with Hank's Balanced Salt Solution (HBSS) (Gibco). Finally, 100-200 μL imaging media (HBSS buffered with 20 mM 4-(2-hydroxyethyl)-1-piperazineethanesulfonic acid (HEPES), adjusted to pH 7.4) was added to cells. Confocal images were captured with an EVOS microscope or a Zeiss LSM510 laser scanning microscope using 60× oil objective lens. […]
substance,measurement,value
"A-1.0: E07min aptamer, EGFR-targeting, 5′ Cy5, 2′F U, C, SEQ ID 75 (GGACGGAUUUAAUCGCCGUAGAAAAGCAUGUCAAAGCCGGAACCGUCC; 5′ Cy5; 2′F U and C; 2′ fluorine)",intracellular localisation after internalisation,accumulate in lysosomes after internalisation
